# Values of other authors as cited in PMC9179904 (Cancers, 2022).
# Experiments:
# [1] = design: method as in PMID 7938477, PMID 9935073
# [2] = tested on: PC-3 PIP and LNCaP tumors; design: method as in PMID 34402925
Compound,Internalized alpha particles needed to decrease survival to 37–50% [1],"Tumor uptake, PC-3 PIP higher than LNCaP tumors [2]"
^213Bi-CHX-A-DTPA-HuM195m,1,
O=C([O-])CN1CCN(CC(=O)[O-])CCN(CC(=O)NCC2CCC(C(=O)N[C@@H](Cc3ccc4ccccc4c3)C(=O)NCCCC[C@H](NC(=O)N[C@@H](CCC(=O)O)C(=O)O)C(=O)O)CC2)CCN(CC(=O)[O-])CC1.[177Lu+3] (stereo partly drawn) [^177Lu-PSMA-617],,6–10 fold
S=C([S-])N1CCCC1.S=C([S-])N1CCCC1.[Pb+2] [^212Pb(PDC)2],11,
